Reference: patent publication US7410635B2 (priority 2003, dated 2008)

Settings: pH 3

Question: Which average degradation does the source give for `C=CCC1(CC(C)C)C(=O)NC(=O)NC1=O` [Butalbital, 5-(2-Methylpropyl)-5-(2-propenyl)-2,4,6(1H,3H,5H) -pyrim idinetrione] here?
Answer: Its average degradation is 1.2%.
